This data set is described as follows: pKa, pI and % salt of peptidic buffers. Format: physicochemical. The settings on record: for pI: Table 2; for % salt: fraction ionized with net charge in aqueous solution at pH equal to the pI.

From patent publication US20050142531A1, “Peptidically buffered formulations for electrotransport applications and methods of making” (priority 2003, published 2005) come the findings set out here.

Square brackets hold non-standard residues; d marks the D form. Peptide text beside a SMILES is read from it. Cit = NC(=O)NCCC[C@H](N)C(=O)O

As to `C[C@H](N)C(=O)N[C@@H](Cc1c[nH]cn1)C(=O)O` [Ala-His] (H-Ala-His-OH; N-terminus and C-terminus assumed), the “pka A (acidic pKa)” value (Table 2, first acidic pKa) came to 2.42. Besides, the “pka B (basic pKa)” value (Table 2, first basic pKa) was determined as 6.71 and the “pka B (basic pKa)” value (Table 2, second basic pKa) is recorded as 8.37.

Turning to `Cn1cncc1C[C@H](NC(=O)CCN)C(=O)O` [Anserine], where the note is “Table 2, first acidic pKa”, the “pka A (acidic pKa)” value was 2.64. Moreover, the “pka B (basic pKa)” value by setting is: (Table 2, first basic pKa) 7.04; (Table 2, second basic pKa) 9.49.

For `N=C(N)NCCC[C@H](N)C(=O)N[C@@H](CC(=O)O)C(=O)O` [Arg-Asp] (H-Arg-Asp-OH; N-terminus and C-terminus assumed), the “pka A (acidic pKa)” value reads like this: (Table 2, first acidic pKa) 2.64; (Table 2, second acidic pKa) 4.10. Besides, the “pka B (basic pKa)” value by setting is: (Table 2, first basic pKa) 8.05; (Table 2, second basic pKa) 12.50.

With `N=C(N)NCCC[C@H](N)C(=O)N[C@@H](CCC(=O)O)C(=O)O` [Arg-Glu] (H-Arg-Glu-OH; N-terminus and C-terminus assumed), the “pka A (acidic pKa)” value runs as follows: (Table 2, first acidic pKa) 2.74; (Table 2, second acidic pKa) 4.18. Moreover, the “pka B (basic pKa)” value is, setting by setting: (Table 2, first basic pKa) 7.92; (Table 2, second basic pKa) 12.50.

In the case of `NC(=O)C[C@H](N)C(=O)N[C@@H](Cc1c[nH]cn1)C(=O)O` [Asn-His] (H-Asn-His-OH; N-terminus and C-terminus assumed), the “pka A (acidic pKa)” value (Table 2, first acidic pKa) is 2.42. The “pka B (basic pKa)” value is 6.71 (Table 2, first basic pKa) and 7.30 (Table 2, second basic pKa).

Turning to `N[C@@H](CC(=O)O)C(=O)N[C@@H](CC(=O)O)C(=O)O` [Asp-Asp] (H-Asp-Asp-OH; N-terminus and C-terminus assumed), the “pka A (acidic pKa)” value is, setting by setting: (Table 2, first acidic pKa) 2.70; (Table 2, second acidic pKa) 3.40; (Table 2, third acidic pKa) 4.70. The “pka B (basic pKa)” value (Table 2, first basic pKa) was determined as 8.26.

For the molecule `N[C@@H](CC(=O)O)C(=O)N[C@@H](Cc1c[nH]cn1)C(=O)O` [Asp-His] (H-Asp-His-OH; N-terminus and C-terminus assumed), the “pka A (acidic pKa)” value is, setting by setting: (Table 2, first acidic pKa) 2.45; (Table 2, second acidic pKa) 3.02. For the same molecule, the “pka B (basic pKa)” value reads like this: (Table 2, first basic pKa) 6.81; (Table 2, second basic pKa) 7.98.

Consider `NCCC(=O)N[C@@H](Cc1cnc[nH]1)C(=O)O` [Beta-Alanylhistidine], for which the pI was 7.70 and the “% salt” value came to 16%. Also, the “pka A (acidic pKa)” value (Table 2, first acidic pKa) worked out at 2.60. Under “Table 2, first basic pKa”, the “pka B (basic pKa)” value is given as 6.70. The “pka B (basic pKa)” value (Table 2, second basic pKa) is on record as 8.70.

Regarding `NCCC(=O)N[C@@H](Cc1cnc[nH]1)C(=O)O` [Carnosine], the pI is 8.17 and the “% salt” value is reported as 8%. For the same molecule, for the setting “Table 2, first acidic pKa”, the “pka A (acidic pKa)” value stood at 2.64. For the same molecule, under “Table 2, first basic pKa”, the “pka B (basic pKa)” value is 6.83. Also, the “pka B (basic pKa)” value (Table 2, second basic pKa) was found to be 9.51.

As to `NC(=O)NCCC[C@H](N)C(=O)N[C@@H](Cc1c[nH]cn1)C(=O)O` [Citrulline-His] (H-[Cit]-His-OH; N-terminus and C-terminus assumed), where the note is “Table 2, first acidic pKa”, the “pka A (acidic pKa)” value was found to be 2.42. Besides, the “pka B (basic pKa)” value by setting is: (Table 2, first basic pKa) 6.71; (Table 2, second basic pKa) 7.90.

In the case of `NC(=O)CC[C@H](N)C(=O)N[C@@H](Cc1c[nH]cn1)C(=O)O` [GIn-His] (H-Gln-His-OH; N-terminus and C-terminus assumed), the “pka A (acidic pKa)” value (Table 2, first acidic pKa) is reported as 2.42. Besides, the “pka B (basic pKa)” value amounted to 6.71 (Table 2, first basic pKa) and 7.70 (Table 2, second basic pKa).

As for `N=C(N)NCCC[C@H](NC(=O)[C@@H](N)CCC(=O)O)C(=O)O` [Glu-Arg] (H-Glu-Arg-OH; N-terminus and C-terminus assumed), the “pka A (acidic pKa)” value (Table 2, first acidic pKa) worked out at 2.66 and the “pka A (acidic pKa)” value (Table 2, second acidic pKa) came to 4.01. The “pka B (basic pKa)” value runs as follows: (Table 2, first basic pKa) 7.94; (Table 2, second basic pKa) 12.50.

As for `N[C@@H](CCC(=O)O)C(=O)N[C@@H](Cc1c[nH]cn1)C(=O)O` [Glu-His] (H-Glu-His-OH; N-terminus and C-terminus assumed), the “pka A (acidic pKa)” value runs as follows: (Table 2, first acidic pKa) 2.45; (Table 2, second acidic pKa) 3.45. For the same molecule, the “pka B (basic pKa)” value reads like this: (Table 2, first basic pKa) 6.81; (Table 2, second basic pKa) 8.20.
